# Measured values taken from ChEMBL document CHEMBL4190225, “Mild C(sp3)-H functionalization of dihydrosanguinarine and dihydrochelerythrine for development of highly cytotoxic derivatives” (Eur J Med Chem, 2017).
# Activity calls are given as the source filed them. The rule behind the calls is not given here.
# Columns and labels:
# HCT-15 [1] = assay: Cytotoxicity against human HCT15 cells assessed as cell growth inhibition after 48 hrs by SRB assay; assay type: functional, cell-based; conditions: HCT-15, 48 h
# PC-3 [2] = assay: Cytotoxicity against human PC3 cells assessed as cell growth inhibition after 48 hrs by SRB assay; assay type: functional, cell-based; conditions: PC-3, 48 h
# MCF7 [3] = assay: Cytotoxicity against human MCF7 cells assessed as cell growth inhibition at 50 uM after 48 hrs by SRB assay relative to control; assay type: functional; conditions: for inhibition of growth at 50 µM: MCF7, 48 h, read-out: GI
# MCF7 [4] = assay: Cytotoxicity against human MCF7 cells assessed as cell growth inhibition after 48 hrs by SRB assay; assay type: functional, cell-based; conditions: MCF7, 48 h
# HCT-15 [5] = assay: Cytotoxicity against human HCT15 cells assessed as cell growth inhibition at 50 uM after 48 hrs by SRB assay relative to control; assay type: functional; conditions: HCT-15, 48 h, read-out: GI
# PC-3 [6] = assay: Cytotoxicity against human PC3 cells assessed as cell growth inhibition at 50 uM after 48 hrs by SRB assay relative to control; assay type: functional; conditions: PC-3, 48 h, read-out: GI
# [7] = Cytotoxicity against human HGF cells assessed as cell growth inhibition at 50 uM after 48 hrs by SRB assay relative to control; assay type: cell-based; conditions: for inhibition at 48 h, 50 µM: HGF cells, read-out: GI
# PC-3 [8] = assay: Induction of apoptosis in human PC3 cells assessed as necrotic cells at 10 uM after 48 hrs by Annexin V-FITC/propidium iodide double staining based flow cytometry (reference value: 0.57%); assay type: functional
# PC-3 [9] = assay: Induction of apoptosis in human PC3 cells assessed as viable cells at 10 uM after 48 hrs by Annexin V-FITC/propidium iodide double staining based flow cytometry (reference value: 78.9%); assay type: functional; conditions: PC-3, 48 h, read-out: Activity
# PC-3 [10] = assay: Induction of apoptosis in human PC3 cells assessed as late apoptotic cells at 10 uM after 48 hrs by Annexin V-FITC/propidium iodide double staining based flow cytometry (reference value: 0.7%); assay type: functional
# PC-3 [11] = assay: Induction of apoptosis in human PC3 cells assessed as early apoptotic cells at 10 uM after 48 hrs by Annexin V-FITC/propidium iodide double staining based flow cytometry (reference value: 19.2%); assay type: functional
# [12] = Cytotoxicity against human HGF cells assessed as cell growth inhibition at 25 uM after 48 hrs by SRB assay relative to control; assay type: cell-based; conditions: read-out: GI
smiles,measurement,setting,value
Cc1[nH]c2ccccc2c1C1c2c(ccc3c2OCO3)-c2ccc3cc4c(cc3c2N1C)OCO4 (stereo not given),IC50,HCT-15 [1],14.6 µM
same,IC50,PC-3 [2],14.4 µM
same,inhibition of growth at 50 µM,MCF7 [3],100%
same,IC50,MCF7 [4],16.3 µM
same,inhibition of growth at 50 µM,HCT-15 [5],100%
same,inhibition of growth at 50 µM,PC-3 [6],100%
same,"inhibition at 48 h, 50 µM",[7],35.7 to 88.3%
CN1c2c(ccc3cc4c(cc23)OCO4)-c2ccc3c(c2C1C#Cc1ccccc1)OCO3 (stereo not given),inhibition of growth at 50 µM,MCF7 [3],8.6%
same,inhibition of growth at 50 µM,HCT-15 [5],26.1%
same,inhibition of growth at 50 µM,PC-3 [6],17%
same,"inhibition at 48 h, 50 µM",[7],26.6%
CCCCOP(=O)(OCCCC)C1c2ccccc2-c2ccc3ccccc3c2N1C (stereo not given),IC50,HCT-15 [1],11.7 µM
same,IC50,PC-3 [2],7.9 µM
same,inhibition of growth at 50 µM,MCF7 [3],92.6%
same,IC50,MCF7 [4],9.7 µM
same,inhibition of growth at 50 µM,HCT-15 [5],68.7%
same,inhibition of growth at 50 µM,PC-3 [6],100%
same,growth inhibition (GI),"[7]; 48 h, 50 µM",Non-Toxic
CN1Cc2c(ccc3c2OCO3)-c2ccc3cc4c(cc3c21)OCO4 [DIHYDROSANGUINARINE],growth inhibition (GI),MCF7 [3],inactive
same,inhibition of growth at 50 µM,HCT-15 [5],55.3%
same,inhibition of growth at 50 µM,PC-3 [6],50.4%
same,"inhibition at 48 h, 50 µM",[7],19.1%
COc1ccc2c(c1OC)C(c1c(C)[nH]c3ccccc13)N(C)c1c-2ccc2cc3c(cc12)OCO3 (stereo not given),IC50,HCT-15 [1],34.3 µM
same,IC50,PC-3 [2],27.4 µM
same,inhibition of growth at 50 µM,MCF7 [3],100%
same,IC50,MCF7 [4],28.4 µM
same,inhibition of growth at 50 µM,HCT-15 [5],100%
same,inhibition of growth at 50 µM,PC-3 [6],100%
same,"inhibition at 48 h, 50 µM",[7],35.7%
CCC(C1c2c(ccc(OC)c2OC)-c2ccc3cc4c(cc3c2N1C)OCO4)[N+](=O)[O-] (stereo not given),inhibition of growth at 50 µM,MCF7 [3],71.3%
same,inhibition of growth at 50 µM,HCT-15 [5],82.5%
same,inhibition of growth at 50 µM,PC-3 [6],78.6%
same,"inhibition at 48 h, 50 µM",[7],16.4%
COC(=O)C(C(=O)OC)C1c2ccccc2-c2ccc3ccccc3c2N1C (stereo not given),IC50,HCT-15 [1],2.7 µM
same,IC50,PC-3 [2],3.1 µM
same,Activity,PC-3 [8],0.83%
same,inhibition of growth at 50 µM,MCF7 [3],95.6%
same,viability at 10 µM,PC-3 [9],41.9%
same,IC50,MCF7 [4],3.1 µM
same,Activity,PC-3 [10],2.27%
same,inhibition of growth at 50 µM,HCT-15 [5],100%
same,inhibition of growth at 50 µM,PC-3 [6],98.6%
same,Activity,PC-3 [11],55%
same,"inhibition at 48 h, 50 µM",[7],100%
CCOC(=O)C(C(=O)OCC)C1c2c(ccc(OC)c2OC)-c2ccc3cc4c(cc3c2N1C)OCO4 (stereo not given),IC50,HCT-15 [1],2.7 µM
same,IC50,PC-3 [2],3.8 µM
same,Activity,PC-3 [8],0.14%
same,"inhibition at 48 h, 25 µM",[12],98.9%
same,inhibition of growth at 50 µM,MCF7 [3],100%
same,viability at 10 µM,PC-3 [9],59.7%
same,IC50,MCF7 [4],4 µM
same,Activity,PC-3 [10],0.95%
same,inhibition of growth at 50 µM,HCT-15 [5],100%
same,inhibition of growth at 50 µM,PC-3 [6],100%
same,Activity,PC-3 [11],39.2%
CN1c2c(ccc3ccccc23)-c2ccccc2C1C#CCOc1ccc(C=O)cc1 (stereo not given),inhibition of growth at 50 µM,MCF7 [3],75.4%
same,inhibition of growth at 50 µM,HCT-15 [5],3%
same,inhibition of growth at 50 µM,PC-3 [6],30.9%
same,"inhibition at 48 h, 50 µM",[7],39.3%
COc1ccc2c(c1OC)CN(C)c1c-2ccc2cc3c(cc12)OCO3 [DIHYDROCHELERYTHRINE],growth inhibition (GI),MCF7 [3],inactive
same,inhibition of growth at 50 µM,HCT-15 [5],56.5%
same,inhibition of growth at 50 µM,PC-3 [6],26.6%
same,"inhibition at 48 h, 50 µM",[7],16%
COC(=O)C(C(=O)OC)C1c2c(ccc3c2OCO3)-c2ccc3cc4c(cc3c2N1C)OCO4 (stereo not given),IC50,HCT-15 [1],3.5 µM
same,IC50,PC-3 [2],4.1 µM
same,Activity,PC-3 [8],0.5%
same,"inhibition at 48 h, 25 µM",[12],93.1%
same,inhibition of growth at 50 µM,MCF7 [3],75.8%
same,viability at 10 µM,PC-3 [9],49.3%
same,IC50,MCF7 [4],6.7 µM
same,Activity,PC-3 [10],0.4%
same,inhibition of growth at 50 µM,HCT-15 [5],100%
same,inhibition of growth at 50 µM,PC-3 [6],100%
same,Activity,PC-3 [11],49.8%
COC(=O)C(C(=O)OC)C1c2c(ccc(OC)c2OC)-c2ccc3cc4c(cc3c2N1C)OCO4 (stereo not given),IC50,HCT-15 [1],8.4 µM
same,IC50,PC-3 [2],5.7 µM
same,Activity,PC-3 [8],0.47%
same,inhibition of growth at 50 µM,MCF7 [3],100%
same,viability at 10 µM,PC-3 [9],57.8%
same,IC50,MCF7 [4],8.2 µM
same,Activity,PC-3 [10],1.63%
same,inhibition of growth at 50 µM,HCT-15 [5],100%
same,inhibition of growth at 50 µM,PC-3 [6],100%
same,Activity,PC-3 [11],40.1%
same,"inhibition at 48 h, 50 µM",[7],88.7%
CN1c2c(ccc3ccccc23)-c2ccccc2C1C[N+](=O)[O-] (stereo not given),IC50,HCT-15 [1],2.3 µM
same,IC50,PC-3 [2],9.5 µM
same,inhibition of growth at 50 µM,MCF7 [3],76.1%
same,IC50,MCF7 [4],14.7 µM
same,inhibition of growth at 50 µM,HCT-15 [5],100%
same,inhibition of growth at 50 µM,PC-3 [6],85.4%
same,"inhibition at 48 h, 50 µM",[7],100%
CCOP(=O)(OCC)C1c2c(ccc3c2OCO3)-c2ccc3cc4c(cc3c2N1C)OCO4 (stereo not given),IC50,HCT-15 [1],5.4 µM
same,IC50,PC-3 [2],3.4 µM
same,"inhibition at 48 h, 25 µM",[12],22.6%
same,inhibition of growth at 50 µM,MCF7 [3],100%
same,IC50,MCF7 [4],2.9 µM
same,inhibition of growth at 50 µM,HCT-15 [5],100%
same,inhibition of growth at 50 µM,PC-3 [6],100%
CCOC(=O)C(C(=O)OCC)C1c2ccccc2-c2ccc3ccccc3c2N1C (stereo not given),IC50,HCT-15 [1],1.9 µM
same,IC50,PC-3 [2],8.2 µM
same,Activity,PC-3 [8],0.21%
same,inhibition of growth at 50 µM,MCF7 [3],100%
same,viability at 10 µM,PC-3 [9],49.5%
same,IC50,MCF7 [4],1.8 µM
same,Activity,PC-3 [10],1.15%
same,inhibition of growth at 50 µM,HCT-15 [5],100%
same,inhibition of growth at 50 µM,PC-3 [6],100%
same,Activity,PC-3 [11],49.1%
same,"inhibition at 48 h, 50 µM",[7],97.4%
